Measurements from patent US20250186439A1, “PYK2 INHIBITION MODULATES IMMUNE CELL FUNCTION” (The Children's Medical Center Corporation, priority 2022, published 2025).
“Also recorded” adds a separate entry of the source.

Experiments:
[1] = tested on: MG6 cells; assay: Phagocytosis of Hilite-555 labelled Aβ42 by MG6 cells; format: cell-based, mouse; conditions: 24 h inhibitor, Hilite-555 labelled Aβ42 500 ng/mL; listed as Pyk2 inhibitor
Protocol: FIGS. 5A-5D. Characteristics of Pyk2 inhibition on phagocytotic activity in microglia. FIG. 5A: Immunofluorescent imaging depicting phagocytosis of pHrodo Red E. coli BioParticles by MG6 cells after exposure to Pyk2 inhibitors. MG6 cells were either untreated (left) or treated with 1000 nM Pyk2 inhibitor treatment for 24 hours (right). Immunofluorescent images were obtained via confocal microscopy (×600). MG6 cells were fixed and stained with phalloidin-AlexaFluor488 to visualize actin, and with DAPI to visualize nuclei (encircled). Scale bar is 20 μm. […] FIG. 5B: Immunofluorescent imaging depicting phagocytosis of pHrodo Red E. coli BioParticles by mononucleated and multinucleated MG6 cells after exposure to Pyk2 inhibitors. MG6 cells were treated and imaged as in FIG. 5A. After obtaining three-dimensional images, BioParticles are quantified by a spot analysis using IMARIS software (bottom figures). FIG. 5C: Quantification of spot analysis in FIG. 5B. The output of IMARIS spot analysis was analyzed using one-way ANOVA. […] FIG. 5D: Phagocytotic activity for Aβ in MG6 cells. Immunostaining for Iba1 and Aβ in control and Pyk2 inhibitor treated group. MG6 cells were treated with Pyk2 inhibitor or vehicle for 24 hours and then Hilite-555 labelled Aβ42 was added for 24 hours. Data are representative images of four wells from three independent experiments. […]

[2] = tested on: MG6 cells; assay: Proliferation of FACS-sorted mono-/multinuclear MG6 cells; format: cell-based, mouse; conditions: 1000 nM, 24 h pretreatment
Protocol: FIGS. 7A-7D. Pyk2 inhibition promotes the phagocytotic activity and inflammatory responses in microglia. FIG. 7A: Quantification of the effect of Pyk2 inhibitor treatment on proliferation of mononucleated and multinucleated MG6 cells. MG6 cells were pretreated with 1000 nM Pyk2 inhibitor for 24 hours and mono-/multi-nuclear cells were isolated and collected by fluorescent activated cell sorting. […] There is no difference in proliferation of mononuclear cells after Pyk2 inhibitor treatment compared to untreated control cells. FIG. 7B: Fluorescent imaging depicting the effect of Pyk2 inhibitor on phagocytosis of mononucleated and multinucleated MG6 cells. […] FIG. 7C: Quantification of phagocytosis of mononucleated and multinucleated MG6 cells over time. […] Fluorescence intensity was measured by fluorescence microplate reader at excitation/emission wavelengths of 560/580 nm. […] FIG. 7D: Quantification of the effect of Pyk2 inhibitor treatment on cytokine/chemokine levels of mononucleated and multinucleated MG6 cells. The relative mRNA levels of IL-6, IL-1β, IL-10, and TGF-β were measured by a real-time PCR (qPCR). Measured mRNA transcript levels are reported as the mean level±standard deviation (n=3; *: p-value<0.05; **: p-value <0.01; ***: p-value <0.005; ****: p-value <0.001; and *****: p-value <0.0005). […]

[3] = tested on: MG6 cells; assay: Phagocytosis of pHrodo Red E. coli BioParticles by MG6 cells (confocal, IMARIS spot analysis); format: cell-based, mouse; conditions: 1000 nM, 24 h
Protocol: FIGS. 5A-5D. Characteristics of Pyk2 inhibition on phagocytotic activity in microglia. FIG. 5A: Immunofluorescent imaging depicting phagocytosis of pHrodo Red E. coli BioParticles by MG6 cells after exposure to Pyk2 inhibitors. MG6 cells were either untreated (left) or treated with 1000 nM Pyk2 inhibitor treatment for 24 hours (right). Immunofluorescent images were obtained via confocal microscopy (×600). MG6 cells were fixed and stained with phalloidin-AlexaFluor488 to visualize actin, and with DAPI to visualize nuclei (encircled). Scale bar is 20 μm. […] FIG. 5B: Immunofluorescent imaging depicting phagocytosis of pHrodo Red E. coli BioParticles by mononucleated and multinucleated MG6 cells after exposure to Pyk2 inhibitors. MG6 cells were treated and imaged as in FIG. 5A. After obtaining three-dimensional images, BioParticles are quantified by a spot analysis using IMARIS software (bottom figures). FIG. 5C: Quantification of spot analysis in FIG. 5B. The output of IMARIS spot analysis was analyzed using one-way ANOVA. […] FIG. 5D: Phagocytotic activity for Aβ in MG6 cells. Immunostaining for Iba1 and Aβ in control and Pyk2 inhibitor treated group. MG6 cells were treated with Pyk2 inhibitor or vehicle for 24 hours and then Hilite-555 labelled Aβ42 was added for 24 hours. Data are representative images of four wells from three independent experiments. A 20 μm scale bar is in the bottom-left corner.
To assess whether or not Pyk2 inhibitor treated, multinuclear MG6 cells were also more phagocytic, treated MG6 cells were subsequently exposed to pHrodo Red E. coli BioParticles (Thermo Fisher Scientific #P35360), a fluorogenic phagocytic substrate derived from Escherichia coli. […] To assess if there was any difference in the phagocytosis of mononucleated and multinucleated MG6 cells, treated cells were assessed via confocal microscopy to generate three-dimensional images of phagocytosed particles, which were then quantified using IMARIS cell imaging software (FIG. 5B).

[4] = tested on: MG6 cells; assay: Phagocytosis of pHrodo Red E. coli BioParticles by sorted mono-/multinuclear MG6 cells (fluorescence plate reader); format: cell-based, mouse
Protocol: FIGS. 7A-7D. Pyk2 inhibition promotes the phagocytotic activity and inflammatory responses in microglia. FIG. 7A: Quantification of the effect of Pyk2 inhibitor treatment on proliferation of mononucleated and multinucleated MG6 cells. MG6 cells were pretreated with 1000 nM Pyk2 inhibitor for 24 hours and mono-/multi-nuclear cells were isolated and collected by fluorescent activated cell sorting. […] There is no difference in proliferation of mononuclear cells after Pyk2 inhibitor treatment compared to untreated control cells. FIG. 7B: Fluorescent imaging depicting the effect of Pyk2 inhibitor on phagocytosis of mononucleated and multinucleated MG6 cells. MG6 cells were pretreated with 1000 nM Pyk2 inhibitor for 24 hours and mono-/multi-nuclear cells were isolated and collected by fluorescent activated cell sorting. After sorting, cells were treated with pHrodo Red E. coli BioParticles. Representative images are shown at ×20 magnification level. FIG. 7C: Quantification of phagocytosis of mononucleated and multinucleated MG6 cells over time. After Pyk2 inhibitor treatment and cell sorting, MG6 cells were treated with pHrodo Red E. coli BioParticles for the indicated time. Fluorescence intensity was measured by fluorescence microplate reader at excitation/emission wavelengths of 560/580 nm. […] FIG. 7D: Quantification of the effect of Pyk2 inhibitor treatment on cytokine/chemokine levels of mononucleated and multinucleated MG6 cells. The relative mRNA levels of IL-6, IL-1β, IL-10, and TGF-β were measured by a real-time PCR (qPCR). Measured mRNA transcript levels are reported as the mean level±standard deviation (n=3; *: p-value<0.05; **: p-value <0.01; ***: p-value <0.005; ****: p-value <0.001; and *****: p-value <0.0005).
Next, the differences in the activity of mononucleated and multinucleated microglial cells in response to Pyk2 inhibition was further assessed. […] Mononucleated and multinucleated MG6 cells also differed regarding the cytokines and chemokines produced by each (FIG. 7D).

[5] = tested on: microglia; assay: β-amyloid (Aβ42) brain infusion assay, microglia response in vivo; set-up: species or system mouse; conditions: intracerebroventricular infusion before Aβ42 infusion
From the text: FIGS. 9A-9B. FIG. 9A. Aβ brain infusion assay system. Using osmotic pump implanted to mice, an experimental system using intracerebroventricular injection was established to validate the morphological and molecular changes of microglia in response to Aβ42 in vivo. FIG. 9B. Activated microglia in the vicinity of amyloid plaques. Pyk2 inhibitor was infused into Iba1-EGFP transgenic mouse brain for 3 days and then Hylite-555 labelled-AP42 was infused into the brain using osmotic pump for the next 3 days. A 20 μm scale bar is in the bottom-left corner.
To test the morphological and molecular changes of microglia in response to Aβ42 in vivo a β-amyloid brain infusion assay was performed. An in vivo experimental system for […] was established with brain infusion pump inserted to left cerebral ventricle and treated Pyk2 inhibitor for 24 hours before Aβ42 infusion (FIG. 9A).

[6] = 4 and 5 hours after pHrodo treatment

Compound: CN(c1ccccc1CNc1nc(Nc2ccc3c(c2)CC(=O)N3)ncc1C(F)(F)F)S(C)(=O)=O [PF-431396]
- phagocytosis of Aβ42 [1]: increased phagocytosis; also recorded: significantly higher
- proliferation of sorted mononucleated MG6 cells vs untreated [2]: no difference
- proliferation of sorted multinucleated MG6 cells ([2]; listed as Pyk2 inhibitor): slightly increased; also recorded: increased level
- phagocytic activity, treated mononuclear and multinuclear microglia combined vs controls [3]: significantly higher
- phagocytosis of pHrodo Red E. coli BioParticles, mononucleated treated cells vs control ([3]; listed as Pyk2 inhibitor): no significant difference
- phagocytosis of pHrodo Red E. coli BioParticles, multinucleated treated cells vs control/mononucleated ([3]; listed as Pyk2 inhibitor): statistically significant increase; also recorded: significantly higher
- phagocytosis of pHrodo BioParticles, sorted mononucleated cells vs control ([4]; 1000 nM pretreatment): did not
- phagocytosis of pHrodo BioParticles, sorted multinucleated cells vs control ([4]; 1000 nM pretreatment): increase in phagocytosis
- phagocytic activity, Pyk2-mono vs control [4, 6]: do not show significant difference
- phagocytic activity, Pyk2-multi vs Pyk2-mono and controls [4, 6]: higher phagocytic activity
- phagocytic activity, sorted mononuclear cells (Pyk2-mono) ([4]; 3 hours after pHrodo treatment): increased fluorescence signal
- phagocytic activity, sorted multinuclear cells (Pyk2-multi) ([4]; 3 hours after pHrodo treatment, listed as Pyk2 inhibitor): statistically significant increase; also recorded: increased fluorescence signal
- expression of MHC class II molecules (e.g., H2-D1 and H2-K1) in microglia [5]: increased expression
- phagocytic activity near amyloid plaques [5]: enhanced
- proportion of activated microglia ([5]; listed as Pyk2 inhibitor): a significant proportion of microglia were activated; also recorded: significantly larger proportion
